# Measurements: patent US4216324A, “1-Difluoromethyl-6,7-methylenedioxy-1,4-dihyd ro-4-oxo-3-quinolinecarboxylic acid” (E. I. Du Pont de Nemours and Company, priority 1978, dated 1980)
# Like-named read-outs stand apart in the source and are kept apart here.
# Key:
# Pseud. aeruginosa = assay: In vitro minimum inhibitory concentration (MIC), tube dilution test; assay type: cell-based; conditions: Pseudomonas aeruginosa, 20 h, brain-heart infusion broth, 20hour incubation at 37° C., read-out: Minimal Inhibitory Test Conens. (MIC)
# Aero. cloacae = assay: as above; assay type: cell-based; conditions: Enterobacter cloacae; Aero. cloacae (39A); brain-heart infusion broth, 20hour incubation at 37° C.; read-out: Minimal Inhibitory Test Conens. (MIC)
# Protocol: (§1) A. In vitro: mimimum inhibitory concentration (MIC)
# (§2) The compound was tested in a standard bacteriological tube dilution test for MIC for a variety of bacteria. Stock cultures of the bacteria listed in Table 1 were grown in bacterial culture media at 37° C. overnight and diluted in culture tubes to a previously determined concentration proper for the test. The compound was added to result in final concentrations of 10, 2, 0.4 and 0.08 μg/ml. These were incubated for 18 hours at 37° C. and then observed to determine if growth of bacteria had occurred. The lowest concentration of the compound that inhibited bacterial growth in the MIC.
# (§3) *brain-heart infusion broth, 20hour incubation at 37° C.
# Strep. pyogenes = assay: as above; assay type: cell-based; conditions: Streptococcus pyogenes; Strep. pyogenes (10V); brain-heart infusion broth, 20hour incubation at 37° C.; read-out: Minimal Inhibitory Test Conens. (MIC)
# Protocol: as §1, §2, §3
# Sal. typhimurium = assay: as above; assay type: cell-based; conditions: Salmonella enterica, 20 h, brain-heart infusion broth, 20hour incubation at 37° C., read-out: Minimal Inhibitory Test Conens. (MIC)
# Protocol: as §1, §2, §3
# Ser. marcescens = assay: as above; assay type: cell-based; conditions: Serratia marcescens; Ser. marcescens (22); brain-heart infusion broth, 20hour incubation at 37° C.; read-out: Minimal Inhibitory Test Conens. (MIC)
# Protocol: as §1, §2, §3
# Sal. choleraesuis = assay: as above; assay type: cell-based; conditions: Salmonella enterica, 20 h, read-out: Minimal Inhibitory Test Conens. (MIC)
# Protocol: as §1, §2, §3
# Proteus sp. = assay: as above; assay type: cell-based; conditions: brain-heart infusion broth, 20hour incubation at 37° C., read-out: Minimal Inhibitory Test Conens. (MIC)
# Protocol: as §1, §2, §3
# Shiq. dysenteriae = assay: as above; assay type: cell-based; conditions: 20 h, read-out: Minimal Inhibitory Test Conens. (MIC)
# Protocol: as §1, §2, §3
# Bac. subtilis = assay: as above; assay type: cell-based; conditions: Bacillus subtilis; Bac. subtilis (07A); brain-heart infusion broth, 20hour incubation at 37° C.; read-out: Minimal Inhibitory Test Conens. (MIC)
# Protocol: as §1, §2, §3
# Sal. gallinarum = assay: as above; assay type: cell-based; conditions: Salmonella enterica, 20 h, brain-heart infusion broth, 20hour incubation at 37° C., read-out: Minimal Inhibitory Test Conens. (MIC)
# Protocol: as §1, §2, §3
# Proteus vulgaris = assay: as above; assay type: cell-based; conditions: Proteus vulgaris (14P); brain-heart infusion broth, 20hour incubation at 37° C.; read-out: Minimal Inhibitory Test Conens. (MIC)
# Protocol: as §1, §2, §3
# Staph. aureus = assay: as above; assay type: cell-based; conditions: Staphylococcus aureus; Staph. aureus (08F); brain-heart infusion broth, 20hour incubation at 37° C.; read-out: Minimal Inhibitory Test Conens. (MIC)
# Protocol: as §1, §2, §3
# E. coli = assay: as above; assay type: cell-based; conditions: Escherichia coli, 20 h, brain-heart infusion broth, 20hour incubation at 37° C., read-out: Minimal Inhibitory Test Conens. (MIC)
# Protocol: as §1, §2, §3
# Sal. typhi = assay: as above; assay type: cell-based; conditions: brain-heart infusion broth, 20hour incubation at 37° C.
# Protocol: as §1, §2, §3
# Kleb. aerobacter = assay: as above; assay type: cell-based; conditions: Kleb. aerobacter (20F); brain-heart infusion broth, 20hour incubation at 37° C.; read-out: Minimal Inhibitory Test Conens. (MIC)
# Protocol: as §1, §2, §3
# [1] = General pharmacology screen in mice; conditions: mouse, in vivo, po; for TD50: doses given in mg./kg
# Protocol: 17- to 24-hour fasted female white mice, 16-20 g. each, or rats, 70-90 g. each were dosed orally with test drug (or standard) at 0, 4, 12, 36, 108 or 324 mg./kg.
# Ataxia--The mouse or rat was placed upright on the bench top facing away from the observer. Motor incoordination manifested by abnormal gait or lack of precision during purposive movements constituted ataxia.
# Vertical Bar--The mouse or rat was swung by the tail with head pointing down to a 0.5" diameter (1" diameter for rats), 30.5 cm long vertical rod covered with adhesive tape. Inability to grip the rod with the front paws, sliding or failure to move after being prodded constituted vertical bar loss.
# Body Temperature--The rectal temperatures of the mice and rats were taken using a KC-1 thermocouple probe.
# Excitement and Irritability--Increased spontaneous motor activity, running and jumping prior to handling were recorded as excitement. Upon handling, jumping, jerking, biting and squeaking were recorded as irritability.
# Anorexia--At the end of the 0.5 hour testing period, each mouse was transferred to an individual, clear, Lucite® compartment (13.3 cm×12.7 cm×12.7 cm) with a 0.64 cm×0.64 cm wire mesh floor. Inside each compartment there was a section of a black Lucite® bar [13 cm×1.2 cm×1.2 cm) with ten spot depressions (0.8 cm diameter) each containing 0.05 ml. of 50% sweetened condensed milk. 30 Minutes later the number of milk spots consumed was counted. 5 Mice per drug dose can drink a maximum of 50 spots (2.5 ml. of milk). 15 or fewer spots consumed by 5 mice constituted anorexia.
compound,measurement,setting,value
"CCn1cc(C(=O)O)c(=O)c2cc3c(cc21)OCO3 [Oxolinic Acid, oxolinic acid]",MIC,Pseud. aeruginosa; Pseud. aeruginosa (11B),2 µg/mL
same,MIC,Pseud. aeruginosa; Pseud. aeruginosa (11C),2 µg/mL
same,MIC,Pseud. aeruginosa; Pseud. aeruginosa (11D),10 µg/mL
same,MIC,Pseud. aeruginosa; Pseud. aeruginosa (11G),10 µg/mL
same,MIC,Pseud. aeruginosa; Pseud. aeruginosa (11I),2 µg/mL
same,MIC,Pseud. aeruginosa; Pseud. aeruginosa (11J),2 µg/mL
same,MIC,Aero. cloacae,< 0.08 µg/mL
same,MIC,Strep. pyogenes,< 0.08 µg/mL
same,MIC,Sal. typhimurium; Sal. typhimurium (03A),0.4 µg/mL
same,MIC,Sal. typhimurium; Sal. typhimurium (03C),0.4 µg/mL
same,MIC,Sal. typhimurium; Sal. typhimurium (03K),< 0.08 µg/mL
same,MIC,Ser. marcescens,0.4 µg/mL
same,MIC,Sal. choleraesuis,< 0.08 µg/mL
same,MIC,Proteus sp.,< 0.08 µg/mL
same,MIC,Shiq. dysenteriae,0.4 µg/mL
same,MIC,Bac. subtilis,< 0.08 µg/mL
same,MIC,Sal. gallinarum; Sal. gallinarum (04C),2 µg/mL
same,MIC,Sal. gallinarum; Sal. gallinarum (04D),0.4 µg/mL
same,MIC,Proteus vulgaris,2 µg/mL
same,MIC,Staph. aureus,0.4 µg/mL
same,MIC,E. coli; E. coli (06-2B),2 µg/mL
same,MIC,E. coli; E. coli (06-2F),0.4 µg/mL
same,MIC,E. coli; E. coli (06-2L),10 µg/mL
same,MIC,E. coli; E. coli (06-2M),< 0.08 µg/mL
same,MIC,E. coli; E. coli (06C),2 µg/mL
same,MIC,E. coli; E. coli (06I),10 µg/mL
same,MIC,E. coli; E. coli (06J),0.4 µg/mL
same,MIC,E. coli; E. coli (06K),0.4 µg/mL
same,MIC,E. coli; E. coli (06L),0.4 µg/mL
same,MIC,E. coli; E. coli (06M),0.4 µg/mL
same,MIC,E. coli; E. coli (06S),2 µg/mL
same,MIC,E. coli; E. coli (06V),0.4 µg/mL
same,MIC,E. coli; E. coli (06X),2 µg/mL
same,MIC,E. coli; E.coli (06-2D),2 µg/mL
same,Minimal Inhibitory Test Conens. (MIC),Sal. typhi; Sal. typhi (02B),0.4 µg/mL
same,MIC,"Sal. typhi; Salmonella enterica, Sal. typhi (02A), read-out: Minimal Inhibitory Test Conens. (MIC)",0.4 µg/mL
same,MIC,Kleb. aerobacter,> 10 µg/mL
same,LD50 at 24 h,[1],> 450 mg/kg
same,TD50,"[1]; ED50 Anoroxia, 15 or fewer milk spots consumed by 5 mice",21 mg/kg
same,TD50,[1]; ED50 Ataxia,3.2 mg/kg
same,TD50,[1]; ED50 Excitation,8 mg/kg
same,TD50,"[1]; ED50 Hypertherm., rectal temperature",> 450 mg/kg
same,TD50,"[1]; ED50 Hypotherm., rectal temperature",> 450 mg/kg
same,TD50,[1]; ED50 Irritability,36 mg/kg
same,TD50,"[1]; ED50 Vert. Bar, vertical bar loss",4.5 mg/kg
